One block for each compound: values may come before it. Calls of active or inactive are those of the source. The calls are words filed in the database; no cut-off is given here.
Legend:
[1] = target: Fibroblast growth factor receptor 3 (Homo sapiens, UniProt P22607); experiment: Inhibition of FGFR3 (unknown origin)
[2] = target: Fibroblast growth factor receptor 2 (Homo sapiens, UniProt P21802); experiment: Inhibition of FGFR2 (unknown origin)
[3] = target: Fibroblast growth factor receptor 1 (Homo sapiens, UniProt P11362); experiment: Inhibition of FGFR1 (unknown origin)
Huh-7 = experiment: cells; conditions: Homo sapiens, Huh-7, 72 h
Description: Antiproliferative activity against human Huh-7 cells assessed as inhibition of cell proliferation measured after 72 hrs by SRB assay

[4] = Stability of the compound in rat liver microsomes assessed as parent compound remaining incubated for 60 mins in presence of NADPH by LC-MS analysis; format: ADME, Microsome; conditions: read-out: Stability
Hep 3B2 = experiment: Induction of apoptosis in human Hep3B cells assessed as increase in cleaved PARP level at 3 to 20 uM by Western blot analysis; format: functional, cell-based; conditions: dose 3-20 µM
[5] = target: T1, Fibroblast growth factor receptor 4 (Homo sapiens, UniProt P22455)
Target sequence in this assay (P22455 whole entry, the tested form may be a part): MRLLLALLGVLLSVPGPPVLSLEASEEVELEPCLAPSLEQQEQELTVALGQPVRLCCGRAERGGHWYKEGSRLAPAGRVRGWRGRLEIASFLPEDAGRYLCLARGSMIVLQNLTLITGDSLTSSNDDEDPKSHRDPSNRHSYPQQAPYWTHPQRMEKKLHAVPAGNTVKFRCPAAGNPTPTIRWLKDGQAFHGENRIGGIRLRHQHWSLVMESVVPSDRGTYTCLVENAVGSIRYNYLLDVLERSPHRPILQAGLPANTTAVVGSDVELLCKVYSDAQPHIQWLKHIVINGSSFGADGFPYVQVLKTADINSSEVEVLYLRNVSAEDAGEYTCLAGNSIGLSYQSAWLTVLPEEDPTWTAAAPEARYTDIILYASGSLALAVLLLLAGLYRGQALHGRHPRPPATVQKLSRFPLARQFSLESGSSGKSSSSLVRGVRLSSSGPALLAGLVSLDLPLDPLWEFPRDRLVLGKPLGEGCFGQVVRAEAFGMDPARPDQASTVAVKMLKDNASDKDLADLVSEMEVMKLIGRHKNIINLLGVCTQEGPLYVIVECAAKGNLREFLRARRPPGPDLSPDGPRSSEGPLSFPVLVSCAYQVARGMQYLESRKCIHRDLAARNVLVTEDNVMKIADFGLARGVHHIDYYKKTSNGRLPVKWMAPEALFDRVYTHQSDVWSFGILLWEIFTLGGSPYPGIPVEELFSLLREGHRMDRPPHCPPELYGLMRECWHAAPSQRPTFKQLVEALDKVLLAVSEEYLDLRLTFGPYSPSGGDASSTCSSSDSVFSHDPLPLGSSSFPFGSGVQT
Description: Inhibition of FGFR4 (unknown origin)

[6] = target: T1, Fibroblast growth factor receptor 4; experiment: Inhibition of N-terminal GST fusion tagged human FGFR4 cytoplasmic domain (460 to 802 end residues) expressed in baculovirus expression system at 1 nM preincubated for 10 mins followed by substrate addition and further incubated for 30 mins in presence of ATP at Km concentration by caliper mobility shift assay relative to control; conditions: time 40.0 min
Target sequence in this assay (P22455 22-802 limits assumed): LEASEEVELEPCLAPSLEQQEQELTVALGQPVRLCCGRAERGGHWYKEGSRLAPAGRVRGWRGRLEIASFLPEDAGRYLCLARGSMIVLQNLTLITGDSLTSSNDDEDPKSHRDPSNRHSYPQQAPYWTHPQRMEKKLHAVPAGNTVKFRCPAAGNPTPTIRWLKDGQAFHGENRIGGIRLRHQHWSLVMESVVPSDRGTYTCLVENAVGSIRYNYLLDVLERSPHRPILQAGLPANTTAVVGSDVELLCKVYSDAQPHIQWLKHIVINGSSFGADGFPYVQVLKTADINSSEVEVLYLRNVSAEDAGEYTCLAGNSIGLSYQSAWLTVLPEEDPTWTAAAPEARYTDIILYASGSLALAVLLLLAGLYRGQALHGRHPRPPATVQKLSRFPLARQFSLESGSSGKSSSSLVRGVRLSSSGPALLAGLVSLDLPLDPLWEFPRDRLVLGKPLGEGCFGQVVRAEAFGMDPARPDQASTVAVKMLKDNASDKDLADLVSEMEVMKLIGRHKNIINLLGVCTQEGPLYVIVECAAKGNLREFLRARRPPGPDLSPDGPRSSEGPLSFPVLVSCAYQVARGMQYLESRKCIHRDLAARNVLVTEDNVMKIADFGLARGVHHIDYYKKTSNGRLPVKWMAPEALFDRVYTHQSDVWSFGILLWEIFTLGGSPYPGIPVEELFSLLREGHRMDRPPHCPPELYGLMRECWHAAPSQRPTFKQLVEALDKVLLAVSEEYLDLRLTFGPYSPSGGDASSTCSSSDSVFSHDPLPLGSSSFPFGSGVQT

[7] = Stability of the compound in rat plasma assessed as parent compound remaining incubated for 60 mins; format: ADME, cell-free; conditions: read-out: Stability

Chain of Fibroblast growth factor receptor 1 (P11362 whole entry): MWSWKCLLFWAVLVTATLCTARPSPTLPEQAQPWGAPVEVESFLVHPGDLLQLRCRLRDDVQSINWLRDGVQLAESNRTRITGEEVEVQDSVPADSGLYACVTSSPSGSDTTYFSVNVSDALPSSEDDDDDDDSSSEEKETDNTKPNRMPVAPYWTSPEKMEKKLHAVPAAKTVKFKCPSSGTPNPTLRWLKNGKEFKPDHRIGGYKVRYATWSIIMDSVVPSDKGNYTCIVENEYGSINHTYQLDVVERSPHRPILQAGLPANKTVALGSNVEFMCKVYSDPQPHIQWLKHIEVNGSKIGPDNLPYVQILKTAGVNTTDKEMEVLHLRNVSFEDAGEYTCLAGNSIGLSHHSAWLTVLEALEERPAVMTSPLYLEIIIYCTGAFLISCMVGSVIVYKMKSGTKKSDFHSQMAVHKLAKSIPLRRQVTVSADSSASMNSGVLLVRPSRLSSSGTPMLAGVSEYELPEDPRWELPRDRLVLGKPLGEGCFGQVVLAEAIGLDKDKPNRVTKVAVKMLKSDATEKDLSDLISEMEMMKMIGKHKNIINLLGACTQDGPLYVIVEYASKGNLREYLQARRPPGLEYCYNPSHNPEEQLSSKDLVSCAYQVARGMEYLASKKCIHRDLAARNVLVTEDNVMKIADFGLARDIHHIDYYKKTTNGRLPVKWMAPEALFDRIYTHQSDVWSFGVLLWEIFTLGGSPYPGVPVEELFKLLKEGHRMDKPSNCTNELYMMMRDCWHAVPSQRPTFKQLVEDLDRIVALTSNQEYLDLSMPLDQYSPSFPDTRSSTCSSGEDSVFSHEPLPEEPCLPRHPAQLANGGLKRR
Chain of Fibroblast growth factor receptor 2 (P21802 whole entry): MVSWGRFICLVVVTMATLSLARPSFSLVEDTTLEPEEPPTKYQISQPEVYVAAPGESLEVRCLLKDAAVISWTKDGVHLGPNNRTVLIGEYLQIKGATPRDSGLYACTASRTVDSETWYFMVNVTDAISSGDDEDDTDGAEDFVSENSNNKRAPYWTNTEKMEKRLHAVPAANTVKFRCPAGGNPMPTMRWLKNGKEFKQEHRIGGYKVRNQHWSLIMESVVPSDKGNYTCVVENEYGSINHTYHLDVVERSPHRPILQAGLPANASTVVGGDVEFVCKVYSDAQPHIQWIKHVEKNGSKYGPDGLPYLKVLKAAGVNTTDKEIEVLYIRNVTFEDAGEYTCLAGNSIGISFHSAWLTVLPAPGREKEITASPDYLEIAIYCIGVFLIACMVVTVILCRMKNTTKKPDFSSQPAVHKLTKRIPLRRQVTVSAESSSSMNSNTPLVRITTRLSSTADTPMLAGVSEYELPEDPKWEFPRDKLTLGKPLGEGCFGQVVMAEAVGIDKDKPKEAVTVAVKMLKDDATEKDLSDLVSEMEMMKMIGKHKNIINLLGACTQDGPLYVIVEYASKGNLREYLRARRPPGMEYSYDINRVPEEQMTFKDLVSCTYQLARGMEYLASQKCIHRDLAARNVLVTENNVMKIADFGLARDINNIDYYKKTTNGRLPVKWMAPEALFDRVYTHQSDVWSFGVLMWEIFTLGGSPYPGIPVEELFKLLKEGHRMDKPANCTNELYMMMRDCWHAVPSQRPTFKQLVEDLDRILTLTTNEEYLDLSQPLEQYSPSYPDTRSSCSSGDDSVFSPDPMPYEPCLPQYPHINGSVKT
Chain of Fibroblast growth factor receptor 3 (P22607 whole entry): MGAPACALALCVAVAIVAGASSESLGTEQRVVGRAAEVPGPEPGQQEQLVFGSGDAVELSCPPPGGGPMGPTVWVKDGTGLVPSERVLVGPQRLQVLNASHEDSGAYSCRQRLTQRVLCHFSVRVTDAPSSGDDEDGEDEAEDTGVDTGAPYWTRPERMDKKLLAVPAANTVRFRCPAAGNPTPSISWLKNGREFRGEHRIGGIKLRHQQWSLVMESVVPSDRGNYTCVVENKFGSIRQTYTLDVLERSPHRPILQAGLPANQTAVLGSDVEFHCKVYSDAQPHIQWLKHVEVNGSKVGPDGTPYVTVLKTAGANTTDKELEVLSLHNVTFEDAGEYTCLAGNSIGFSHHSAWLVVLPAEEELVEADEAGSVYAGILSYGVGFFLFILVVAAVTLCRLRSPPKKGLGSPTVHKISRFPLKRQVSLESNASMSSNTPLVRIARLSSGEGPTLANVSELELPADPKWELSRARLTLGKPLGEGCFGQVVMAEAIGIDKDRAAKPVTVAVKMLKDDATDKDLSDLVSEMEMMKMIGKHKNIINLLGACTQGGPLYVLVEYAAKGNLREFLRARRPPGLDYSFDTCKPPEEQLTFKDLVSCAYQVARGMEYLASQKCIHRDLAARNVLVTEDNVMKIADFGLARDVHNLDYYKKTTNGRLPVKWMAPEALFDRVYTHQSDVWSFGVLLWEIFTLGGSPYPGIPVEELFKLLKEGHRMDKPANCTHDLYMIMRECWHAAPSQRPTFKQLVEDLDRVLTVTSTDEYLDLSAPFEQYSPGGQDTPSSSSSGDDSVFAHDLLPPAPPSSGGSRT

Compound: C=CC(=O)Nc1cc(CCN2CCOCC2)cc(C)c1Nc1ncc2cc(-c3c(Cl)c(OC)cc(OC)c3Cl)ccc2n1
- IC50 (Huh-7): 13300 nM

Compound: C=CC(=O)Nc1cc(CCN2CCC(NC(=O)OC(C)(C)C)CC2)cc(C)c1Nc1ncc2cc(-c3c(Cl)c(OC)cc(OC)c3Cl)ccc2n1
- IC50 (Huh-7): 4480 nM

Compound: C=CC(=O)N[C@H]1CCOC[C@H]1Nc1ncc2cc(-c3c(Cl)c(OC)cc(OC)c3Cl)ccc2n1 [FISOGATINIB]
- IC50 [5]: 5 nM
- IC50 [1]: 2200 nM
- IC50 [2]: 1200 nM

Compound: C=CC(=O)Nc1cc(CCN2CCCC2)cc(C)c1Nc1ncc2cc(-c3c(Cl)c(OC)cc(OC)c3Cl)ccc2n1
- IC50 (Huh-7): 4520 nM

Compound: C=CC(=O)Nc1cc(CCN2CCc3ccccc3C2)cc(C)c1Nc1ncc2cc(-c3c(Cl)c(OC)cc(OC)c3Cl)ccc2n1
- IC50 (Huh-7): 4450 nM

Compound: C=CC(=O)Nc1cc(CCN2CCN(C)CC2)cc(C)c1Nc1ncc2cc(-c3c(Cl)c(OC)cc(OC)c3Cl)ccc2n1
- IC50 (Huh-7): 7140 nM

Compound: C=CC(=O)Nc1cc(CCN2CCN(C3COC3)CC2)cc(C)c1Nc1ncc2cc(-c3c(Cl)c(OC)cc(OC)c3Cl)ccc2n1
- IC50 (Huh-7): 8480 nM

Compound: C=CC(=O)Nc1cc(S(=O)(=O)NC(=O)C=C)ccc1Nc1ncc2cc(-c3c(Cl)c(OC)cc(OC)c3Cl)ccc2n1
- IC50 (Huh-7): 4750 nM

More lines, in order of falling IC50 (Huh-7), values ahead:

- IC50 (Huh-7): 4330 nM
Compound: C=CC(=O)Nc1cc(CCN(CC)CCC)cc(C)c1Nc1ncc2cc(-c3c(Cl)c(OC)cc(OC)c3Cl)ccc2n1

- IC50 (Huh-7): 4260 nM
Compound: C=CC(=O)Nc1cc(CCCN2CCCC2)cc(C)c1Nc1ncc2cc(-c3c(Cl)c(OC)cc(OC)c3Cl)ccc2n1

- IC50 (Huh-7): 4180 nM
Compound: C=CC(=O)Nc1cc(CCN2CCN(CCOC)CC2)cc(C)c1Nc1ncc2cc(-c3c(Cl)c(OC)cc(OC)c3Cl)ccc2n1

- IC50 (Huh-7): 3560 nM
Compound: C=CC(=O)Nc1cc(CCN2CCCC2CN2CCCC2)cc(C)c1Nc1ncc2cc(-c3c(Cl)c(OC)cc(OC)c3Cl)ccc2n1 (centres undefined)

- IC50 (Huh-7): 2410 nM
Compound: C=CC(=O)Nc1cc(CCO)cc(C)c1Nc1ncc2cc(-c3c(Cl)c(OC)cc(OC)c3Cl)ccc2n1

- inhibition [6]: 55%
- IC50 (Huh-7): 2240 nM
Compound: C=CC(=O)Nc1cc(CCCN(C)C)cc(C)c1Nc1ncc2cc(-c3c(Cl)c(OC)cc(OC)c3Cl)ccc2n1

- IC50 [1]: 102 nM
- IC50 [2]: 15 nM
- IC50 [3]: 28 nM
- IC50 (Huh-7): 2160 nM
Compound: C=CC(=O)Nc1cc(S(C)(=O)=O)ccc1Nc1ncc2cc(-c3c(Cl)c(OC)cc(OC)c3Cl)ccc2n1

- IC50 [1]: 3870 nM
- IC50 [2]: 379 nM
- IC50 [3]: 886 nM
- IC50 (Huh-7): 1940 nM
Compound: C=CC(=O)Nc1cc(S(C)(=O)=O)cc(C)c1Nc1ncc2cc(-c3c(Cl)c(OC)cc(OC)c3Cl)ccc2n1

- remaining at 1 h [4]: 50%
- IC50 [1]: 3920 nM
- IC50 [2]: 341 nM
- IC50 [3]: 787 nM
- IC50 (Huh-7): 1670 nM
- remaining at 1 h [7]: 80%
Compound: C=CC(=O)Nc1cc(S(N)(=O)=O)cc(C)c1Nc1ncc2cc(-c3c(Cl)c(OC)cc(OC)c3Cl)ccc2n1
- Activity (Hep 3B2): Active

- IC50 [1]: 79 nM
- IC50 [2]: 24 nM
- IC50 [3]: 39 nM
- IC50 (Huh-7): 936 nM
Compound: C=CC(=O)Nc1cc(SC)ccc1Nc1ncc2cc(-c3c(Cl)c(OC)cc(OC)c3Cl)ccc2n1

- remaining at 1 h [4]: 15%
- IC50 (Huh-7): 929 nM
Compound: C=CC(=O)Nc1cccc(C)c1Nc1ncc2cc(-c3c(Cl)c(OC)cc(OC)c3Cl)ccc2n1
- Activity (Hep 3B2): Active
